Measurements: patent US5543415A, “Antidepressants” (Kyowa Hakko Kogyo Co., Ltd., priority 1992, dated 1996)

System: ddY-strain male mice
Assay: Acute Toxicity Test (minimum lethal dose, oral)
Assay type: in vivo
Conditions: seven days after administration
Description: Test compounds were orally administered to groups of ddY-strain male mice weighing 20±1 g, each group consisting of three mice. Seven days after the administration, minimum lethal dose (MLD) of each compound was determined by observing the mortality.

Row | Structure (SMILES) | MLD (minimum lethal dose) [mg/kg]
1 | CCn1c(=O)c2[nH]c(/C=C/c3ccc(OC)c(OC)c3Cl)nc2n(CC)c1=O [Compound 105, (E)-8-(2-Chloro-3,4-dimethoxystyryl)-1,3-diethylxanthine] | > 100
2 | CCn1c(=O)c2c(nc(/C=C/c3ccc(C(F)(F)F)cc3)n2C)n(CC)c1=O [Compound 136, (E)-1,3-Diethyl-7-methyl-8-(4-trifluoromethylstyryl)xanthine] | > 300
3 | CCn1c(=O)c2c(nc(/C=C/c3cccc(Oc4ccccc4)c3)n2C)n(CC)c1=O [Compound 192, (E)-1,3-Diethyl-7-methyl-8-(3-phenoxystyryl)xanthine] | > 100
4 | CCn1c(=O)c2[nH]c(/C=C/c3ccc(OC)c(OC)c3)nc2n(CC)c1=O [Compound 73, (E)-8-(3,4-Dimethoxystyryl)-1,3-diethylxanthine] | > 300
5 | CCn1c(=O)c2[nH]c(C(F)=Cc3ccccc3)nc2n(CC)c1=O (stereo in doubt) [Compound 137, (E)-1,3-Diethyl-8-(α-fluorostyryl)xanthine] | > 100
6 | CCCn1c(=O)c2c(nc(/C=C\c3ccc(OC)c(OC)c3)n2C)n(CCC)c1=O [Compound 47, (Z)-8-(3,4-Dimethoxystyryl)-7-methyl-1,3-dipropylxanthine] | > 300
7 | CCn1c(=O)c2c(nc(/C=C/c3ccc(OC)c(C)c3OC)n2C)n(CC)c1=O [Compound 86, (E)-8-(2,4-Dimethoxy-3-methylstyryl)-1,3-diethyl-7-methylxanthine] | > 300
8 | CCn1c(=O)c2c(nc(/C=C/c3ccc(OC)c(OC)c3Cl)n2C)n(CC)c1=O [Compound 106, (E)-8-(2-Chloro-3,4-dimethoxystyryl)-1,3-diethyl-7-methylxanthine] | > 300
9 | CCn1c(=O)c2c(nc(/C=C/c3cc4c(cc3Br)OCO4)n2C)n(CC)c1=O [Compound 166, (E)-8-(2-Bromo-4,5-methylenedioxystyryl)-1,3-diethyl-7-methylxanthine] | > 100
10 | COc1ccc(/C=C/c2nc3c(=O)n(C)c(=O)n(C)c3[nH]2)c(OC)c1OC [Compound 91, (E)-8-(2,3,4-Trimethoxystyryl)theophylline] | > 300
11 | CCCn1c(=O)c2c(nc(/C=C/c3ccc(O)c(O)c3)n2C)n(CCC)c1=O [Compound 54, (E)-8-(3,4-Dihydroxystyryl)-7-methyl-1,3-dipropylxanthine] | > 100
12 | CCCOc1ccc(/C=C/c2nc3c(c(=O)n(CCC)c(=O)n3CCC)n2C)cc1 [Compound 51, (E)-7-Methyl-8-(4-propoxystyryl)-1,3-dipropylxanthine] | > 300
13 | CCn1c(=O)c2c(nc(/C=C/c3ccc(OCCCCN)cc3)n2C)n(CC)c1=O [Compound 188, (E)-8-[4-(4-Aminobutoxy)styryl]-1,3-diethyl-7-methylxanthine] | > 100
14 | CCn1c(=O)c2c(nc(/C=C/c3cccc(C(F)(F)F)c3)n2C)n(CC)c1=O [Compound 164, (E)-1,3-Diethyl-7-methyl-8-(3-trifluoromethylstyryl)xanthine] | > 100
15 | CCCn1c(=O)c2c(nc(/C=C/c3ccc(OC)c(OC)c3)n2C)n(CCC)c1=S [Compound 72, (E)-8-(3,4-Dimethoxystyryl)-7-methyl-1,3-dipropyl-2-thioxanthine] | > 300
16 | CCn1c(=O)c2[nH]c(/C=C/c3cccc(OC)c3[N+](=O)[O-])nc2n(CC)c1=O [Compound 121, (E)-1,3-Diethyl-8-(3-methoxy-2-nitrostyryl)xanthine] | > 300
17 | CCCn1c(=O)c2[nH]c(/C=C/c3cc(OC)c(OC)cc3Br)nc2n(CCC)c1=O [Compound 58, (E)-8-(2-Bromo-4,5-dimethoxystyryl)-1,3-dipropylxanthine] | > 300
18 | CCn1c(=O)c2c(nc(/C=C/c3ccc4c(c3)OCO4)n2C)n(CC)c1=O [Compound 88, (E)-1,3-Diethyl-7-methyl-8-(3,4-methylenedioxystyryl)xanthine] | > 300
19 | CCCn1c(=O)c2nc(/C=C/c3cccc(Cl)c3)[nH]c2n(CCC)c1=O [Compound 39, (E)-8-(3-Chlorostyryl)-1,3-dipropylxanthine] | > 100
20 | CCCn1c(=O)c2[nH]c(/C=C/c3ccc(C)c(C)c3)nc2n(CCC)c1=O [Compound 31, (E)-8-(3,4-Dimethylstyryl)-1,3-dipropylxanthine] | > 100
21 | CCn1c(=O)c2[nH]c(/C=C/c3cc(OC)c(OC)cc3Br)nc2n(CC)c1=O [Compound 117, (E)-8-(2-Bromo-4,5-dimethoxystyryl)-1,3-diethylxanthine] | > 100
22 | CCCn1c(=O)c2nc(/C=C/c3cc(OC)cc(OC)c3)[nH]c2n(CCC)c1=O [Compound 33, (E)-8-(3,5-Dimethoxystyryl)-1,3-dipropylxanthine] | > 100
23 | COc1ccc(/C=C/c2nc3c(c(=O)n(C)c(=O)n3C)n2C)c(OC)c1OC [Compound 92, (E)-8-(2,3,4-Trimethoxystyryl)caffeine] | > 300

Row | Structure (SMILES) | MLD (minimum lethal dose) [mg/kg]
24 | Cn1c(=O)c2[nH]c(/C=C/c3ccc4c(c3)OCO4)nc2n(C)c1=O [Compound 95, (E)-8-(3,4-Methylenedioxystyryl)theophylline] | > 300
25 | CCn1c(=O)c2[nH]c(/C=C/c3cccc(OC)c3OC)nc2n(CC)c1=O [Compound 75, (E)-8-(2,3-Dimethoxystyryl)-1,3-diethylxanthine] | > 300
26 | CCCn1c(=O)c2c(nc(/C=C/c3ccccc3Cl)n2C)n(CCC)c1=O [Compound 42, (E)-8-(2-Chlorostyryl)-7-methyl-1,3-dipropylxanthine] | > 100
27 | COc1ccc(/C=C/c2nc3c(c(=O)n(C)c(=O)n3C)n2C)c(Cl)c1OC [Compound 108, (E)-8-(2-Chloro-3,4-dimethoxystyryl)caffeine] | > 300
28 | CCn1c(=O)c2[nH]c(/C=C/c3ccccc3F)nc2n(CC)c1=O [Compound 167, (E)-1,3-Diethyl-8-(2-fluorostyryl)xanthine] | > 100
29 | CCn1c(=O)c2c(nc(/C=C/c3cccc(OC)c3[N+](=O)[O-])n2C)n(CC)c1=O [Compound 122, (E)-1,3-Diethyl-8-(3-methoxy-2-nitrostyryl)-7-methyl-xanthine] | > 100
30 | COc1ccc(/C=C/c2nc3c([nH]2)c(=O)n(C)c(=O)n3C)c(Cl)c1OC [Compound 107, (E)-8-(2-Chloro-3,4-dimethoxystyryl)theophylline] | > 100
31 | CCn1c(=O)c2[nH]c(/C=C/c3ccc(F)cc3)nc2n(CC)c1=O [Compound 149, (E)-1,3-Diethyl-8-(4-fluorostyryl)xanthine] | > 100
32 | CCCn1c(=O)c2c(nc(/C=C/c3ccccc3F)n2C)n(CCC)c1=O [Compound 44, (E)-8-(2-Fluorostyryl)-7-methyl-1,3-dipropylxanthine] | > 100
33 | CCCOc1ccc(/C=C/c2nc3c([nH]2)c(=O)n(CC)c(=O)n3CC)cc1 [Compound 125, (E)-1,3-Diethyl-8-(4-propoxystyryl)xanthine] | > 100
34 | CCCn1c(=O)c2c(nc(/C=C/c3ccc(OC)c(O)c3)n2C)n(CCC)c1=O [Compound 64, (E)-8-(3-Hydroxy-4-methoxystyryl)-7-methyl-1,3-dipropylxanthine] | > 100
35 | CCCCn1c(=O)c2nc(/C=C/c3cc(OC)c(OC)c(OC)c3)[nH]c2n(CCCC)c1=O [Compound 8, (E)-1,3-Dibutyl-8-(3,4,5-trimethoxystyryl)xanthine] | > 100
36 | CCn1c(=O)c2[nH]c(/C=C/c3ccc(Br)cc3)nc2n(CC)c1=O [Compound 141, (E)-8-(4-Bromostyryl)-1,3-diethylxanthine] | > 100
37 | CCCn1c(=O)c2nc(/C=C/c3cccc(F)c3)[nH]c2n(CCC)c1=O [Compound 37, (E)-8-(3-Fluorostyryl)-1,3-dipropylxanthine] | > 100
38 | CCn1c(=O)c2c(nc(/C=C/c3cc(C(F)(F)F)cc(C(F)(F)F)c3)n2C)n(CC)c1=O [Compound 154, (E)-8-[3,5-Bis (trifluoromethyl)styryl]-1,3-diethyl-7-methylxanthine] | > 100
39 | CCn1c(=O)c2c(nc(/C=C/c3cc(C)ccc3C)n2C)n(CC)c1=O [Compound 110, (E)-8-(2,5-Dimethylstyryl)-1,3-diethyl-7-methylxanthine] | > 300
40 | CCn1c(=O)c2[nH]c(/C=C/c3ccc4c(c3)OCCO4)nc2n(CC)c1=O [Compound 89, (E)-8-[2-(1,4-Benzodioxan-6-yl)vinyl]-1,3-diethylxanthine] | > 100
41 | CCCn1c(=O)c2[nH]c(/C=C/c3ccccc3F)nc2n(CCC)c1=O [Compound 43, (E)-8-(2-Fluorostyryl)-1,3-dipropylxanthine] | > 100
42 | CCOC(=O)COc1ccc(/C=C/c2nc3c(c(=O)n(CC)c(=O)n3CC)n2C)cc1 [Compound 189, (E)-8-(4-Ethoxycarbonylmethoxystyryl)-1,3-diethyl-7-methylxanthine] | > 100
43 | CCCn1c(=O)c2c(nc(/C=C/c3ccc(OCC)c(OCC)c3)n2C)n(CCC)c1=O [Compound 55, (E)-8-(3,4-Diethoxystyryl)-7-methyl-1,3-dipropylxanthine] | > 100
44 | CCn1c(=O)c2c(nc(/C=C/c3cccc(Cl)c3)n2C)n(CC)c1=O [Compound 132, (E)-8-(3-Chlorostyryl)-1,3-diethyl-7-methylxanthine] | > 300
45 | CCn1c(=O)c2c(nc(/C=C/c3ccc(F)c(Cl)c3)n2C)n(CC)c1=O [Compound 177, (E)-8-(3-Chloro-4-fluorostyryl)-1,3-diethyl-7-methylxanthine] | > 100
